Assay results taken from patent US20100286082A1, “RIBOSWITCHES AND METHODS AND COMPOSITIONS FOR USE OF AND WITH RIBOSWITCHES” (Yale University, priority 2007, published 2010).
“And” between values parts separate entries of the source, which are not always exact repeats. Equal values may be shown once.

Experiments:
[1] = test system: 17-90 RNA; assay: In-line probing of 17-90 RNA (preQ1-II aptamer); format: binding, Streptococcus pneumoniae R6; conditions: for binding by 17-90 RNA: compound concentrations up to 1 mM; for Kd: read-out: apparent KD
[2] = test system: 68 metH RNA; assay: In-line probing of 68 metH RNA (SAH aptamer); format: binding, Dechloromonas aromatica; conditions: for modulation of the RNA structure: concentrations as high as 1 mM
Method: iii. In-Line Probing Analysis In-line probing assays were carried out essentially as previously described (Soukup and Breaker, 1999). 5′^32P-labeled RNAs were incubated at room temperature for approximately 40 h in 10 μl volumes containing 50 mM Tris-HCl (pH 8.3 at 25° C.), 20 mM MgCl2, 100 mM KCl, and included test compounds at the concentrations indicated. Spontaneous cleavage products were separated by denaturing 10% PAGE, visualized using a Phosphorlmager (Molecular Dynamics), and quantified using SAFA v1.1 software (Das et al., 2005). The amount of RNA cleaved at each nucleotide position was obtained from SAFA analysis, which automatically determines reference nucleotide positions with invariant levels of spontaneous cleavage to correct for different amounts loaded in each lane. Individual band intensities at each modulated site were summed and normalized to obtain values for the fraction of RNA that was structurally modulated, assuming that there was no modulation in the absence of ligand and maximal modulation in the presence of the highest concentration of ligand. Values for the apparent dissociation constant (KD) were determined by fitting the plot of the fraction modulated (F), versus the ligand concentration, [L], at all three indicated modulation sites to the equation F [L]/([L]+KD) using SigmaPlot 9 software (Systat Software, Inc.).

[3] = biological target: 132 Sc RNA (SAM-IV riboswitch); assay: In-line probing of 132 Sc RNA (SAM-IV); format: binding, Streptomyces coelicolor
Description: DNA corresponding to the aptamer in the pEZ35 plasmid (above) was amplified by PCR with primers 5′-[…]

[4] = test system: 68 metH RNA; assay: Equilibrium dialysis of [3H]SAM with 68 metH RNA; format: binding, Dechloromonas aromatica
Method: (§1) The chambers were separated by a permeable membrane with a molecular weight cut-off of 5000 Daltons.
(§2) Equilibrium dialysis was performed by delivering 20 μl samples to each side of a Dispo-Equilibrium Biodialyzer (The Nest Group, Inc., Southboro, Mass., USA) wherein the separation between chambers is maintained by a dialysis membrane with a 5000 Dalton molecular weight cut-off. One chamber contained a buffer solution comprised of 100 mM Tris-HCl (pH 8.3 at 24° C.), 20 mM MgCl2, 100 mM KCl, plus 100 nM [^3H]SAM.

[5] = biological target: SAM-I riboswitch 124 yitJ; conditions: calculated previously (Lim et al. 2006); read-out: KD [compound] (nM) SAM-I; cited from earlier work
[6] = biological target: SAM-II aptamer 156 metA; conditions: Corbino et al., 2005; read-out: apparent KD for SAM; cited from earlier work
[7] = biological target: SAM-I riboswitch 124 yitJ; assay: SAM-I riboswitch binding (literature); conditions: ratio of the KD for the compound to that for SAM
[8] = test system: SAM-II aptamer 156 metA; conditions: 10 µM RNA, 100 nM [3H]SAM
Method: as §1, §2

[9] = biological target: 110 Vc2 RNA (Vc2 aptamer, GEMM RNA); assay: In-line probing of 110 Vc2 RNA (cyclic di-GMP aptamer); format: binding, Vibrio cholerae
Method: In-line probing assays were performed using methods similar to those described previously (Soukup 1999). Briefly, 5′^32P-labeled RNAs (˜[…] for cyclic di-GMP KD analysis, ˜5 nM for all other analyses) were incubated at 23° C. for approximately 40 hours in 20 mM MgCl2, 100 mM KCl, and 50 mM Tris (pH 8.3 at 23° C.) with the indicated compounds. RNA cleavage products were separated by denaturing 10% PAGE, visualized using a Phosphorimager (Molecular Dynamics), and analyzed using SAFA v1.1 software (Das 2005) or ImageQuant (Molecular Dynamics). SAFA software was used to normalize to correct for differences in the amounts of RNA loaded to each lane and to determine the intensity of each band.
To determine the KD of 110 Vc2 for cyclic di-GMP, in-line probing was conducted as described above with various concentrations of cyclic di-GMP. Due to the use of an exceptionally low concentration of radiolabeled 110 Vc2 RNA, the samples loaded were supplemented with additional unlabeled RNA that had been separately subjected to in-line probing. […] Dissociation constants (KD) were determined using ImageQuant software (Molecular Dynamics) to compare individual band intensities at sites of structural modulation assuming that there was no modulation in the absence of ligand and complete modulation in the presence of the highest ligand concentration tested. […]

[10] = biological target: Escherichia coli PilZ protein domain (Escherichia coli, UniProt P76010); conditions: Ryjenkov 2006; cited from earlier work
[11] = Kinetics of cyclic di-GMP degradation under in-line probing conditions; format: physicochemical; conditions: in-line probing buffer, pH 8.3 at 23° C., 100 mM KCl, 20 mM MgCl2
Method: A solution of 500 μM cyclic di-GMP was incubated in the presence of in-line probing buffer (50 mM Tris-HCl [pH 8.3 at 23° C.], 100 mM KCl, 20 mM MgCl2) for varying amounts of time. The reactions were initiated by the addition of cyclic di-GMP and quenched when a 10 μL aliquot was injected onto an Agilent Technologies 1200 series HPLC equipped with an Agilent Zorbax Oligo column (5 μM, 6.2 mm×80 mm). The compounds were eluted using a gradient mobile phase composed of 95% 0.1 M NaHPO4 [pH 6.0 at 23° C.] and 5% acetonitrile to 100% 1 M NaCl. The absorbance was monitored at 254 nm. A rate constant for cyclic di-GMP was established by plotting the natural logarithm of the fraction of the cyclic di-GMP remaining uncleaved versus time, wherein the negative slope of the resulting line reflects the rate constant.

[12] = test system: wild-type 149 moaA RNA (Moco RNA)-lacZ reporter fusion; assay: β-galactosidase reporter assay of 149 moaA RNA fusion; format: cell-based, Escherichia coli; conditions: modC deletion strain, LB supplemented with 10 mM compound
Description: These sequences were cloned into a translational fusion plasmid upstream of, and in-frame with β-galactosidase reporter gene. The fusion was placed under the control of a constitutively active lacUV5 promoter to eliminate the effects of upstream anaerobic- and molybdate-dependent promoter regulation that naturally restricts expression of the moaA operon. This series of plasmids was placed in a strain of E. coli wherein the moaA gene was deleted. The resulting transformants were transformed with a plasmid containing the moaABCDE operon under the control of an arabinose-inducible and glucose-repressible promoter (Guzman et al., 1995). These doubly transformed strains enabled us to determine the role of the 149 moaA RNA on reporter gene expression when Moco concentrations are either high or low.
To determine whether molybdate is critical for gene regulation by 149 moaA RNA, a modC knockout strain of E. coli was conducted to eliminate high affinity molybdate transporter function. This strain was then transformed with the moaABCDE inducible expression plasmid and the wild-type and mutant 149 moaA reporter fusion plasmids.
To measure gene expression from lacZ in the wild-type and mutant reporter strains of E. coli, the cells were grown in a 14 mL culture vial with shaking overnight at 37° C. in 3 mL of LB with supplementation as indicated. […]

Chain of Escherichia coli PilZ protein domain (P76010 whole entry, the tested form may be a part): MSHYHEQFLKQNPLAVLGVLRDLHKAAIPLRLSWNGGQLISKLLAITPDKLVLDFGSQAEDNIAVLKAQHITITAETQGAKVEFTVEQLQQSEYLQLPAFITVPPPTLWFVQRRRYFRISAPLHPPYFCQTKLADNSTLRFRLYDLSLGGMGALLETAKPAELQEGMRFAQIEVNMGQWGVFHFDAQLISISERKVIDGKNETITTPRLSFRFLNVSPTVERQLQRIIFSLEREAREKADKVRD

Nc1ncc2[nH]cnc2n1 [2-aminopurine]
binding by 17-90 RNA [1]: no binding is detected

Nc1nc2c(c(=O)[nH]1)CC=N2 [7-deazaguanine]
binding by 17-90 RNA [1]: bound with only a slightly better affinity

Cn1cnc2nc(N)[nH]c(=O)c21 [7-methylguanine]
binding by 17-90 RNA [1]: lack of 7-methylguanine binding

Nc1ncnc2c1ncn2[C@@H]1O[C@H](CSC[C@H](N)C(=O)O)[C@@H](O)[C@H]1O [SAC, S-adenosylcysteine]
loss of affinity relative to SAH ([2]; in-line probing): only a modest loss of affinity

C[S+](CC[C@H](N)C(=O)[O-])C[C@H]1O[C@@H](n2cnc3c(N)ncnc32)[C@H](O)[C@@H]1O (stereo partly drawn) [SAM, S-adenosyl-L-methionine]
Kd ([3]; in-line probing, 132 Sc RNA, read-out: KD [compound] (nM) SAM-IV): 150 nM and ~150 nM
KD [compound]/ KD [SAM] SAM-IV ([3]; ratio of the KD for the compound to that for SAM): 1
discrimination against SAM ([4]; SAH versus SAM): ~3 orders of magnitude
Kd ([4]; equilibrium dialysis, 25 μM 68 metH RNA): ≥ 25000 nM
Kd [5]: 5 nM
Kd [6]: ~1000 nM
apparent KD relative to apparent KD for SAH ([2]; in-line probing, commercial SAM (contains ~10% SAH)): no more than 10 fold
KD [compound]/ KD [SAM] SAM-I [7]: 1

C[S+](CC[C@H](N)C(=O)O)C[C@H]1O[C@@H](n2cnc3c(N)ncnc32)[C@H](O)[C@@H]1O (stereo partly drawn) [[^3H]SAM, S-(5′-adenosyl)-L-methionine-(methyl-3H)]
shift of the distribution of [3H]SAM to the RNA chamber [8]: ~1.5 fold
shift of the distribution of [3H]SAM to the RNA chamber ([4]; 10 µM RNA, 100 nM [3H]SAM): no shift

Nc1nc2c(ncn2[C@@H]2O[C@@H]3COP(=O)(O)O[C@H]4[C@@H](O)[C@H](n5cnc6c(=O)[nH]c(N)nc65)O[C@@H]4COP(=O)(O)O[C@H]3[C@H]2O)c(=O)[nH]1 [cyclic di-GMP]
Kd ([9]; in-line probing with various cyclic di-GMP concentrations, read-out: apparent dissociation constant (KD)): ~1 nM
Kd [10]: 840 nM
rate constant for spontaneous cleavage [11]: 3.2e-06 min⁻¹

CN(C)Cc1c[nH]c2nc(N)[nH]c(=O)c12 [dimethylaminomethyl analog, 7-(N,N″-dimethylaminomethyl)-7-deazaguanine]
Kd [1]: ~500 nM

N[C@@H](CCS)C(=O)O [homocysteine]
modulation of the RNA structure [2]: neither homocysteine nor methionine cause any modulation of the RNA structure

CSCC[C@H](N)C(=O)O [methionine, L-methionine]
modulation of the RNA structure [2]: neither homocysteine nor methionine cause any modulation of the RNA structure

Nc1nc2c(ncn2[C@@H]2O[C@H](COP(=O)(O)O)[C@@H](O)[C@H]2O)c(=O)[nH]1 [pG]
binding by the aptamer ([9]; concentration five orders of magnitude higher than the KD for cyclic di-GMP): not bound by the aptamer

N#CC1C=Nc2nc(N)[nH]c(=O)c21 (stereo not drawn) [preQ0, 7-cyano-7-deazaguanine]
Kd [1]: ~500 nM

[Na+].[Na+].[O]=[Mo](=[O])([O-])[O-] [sodium molybdate]
reporter gene expression of WT 149 moaA reporter fusion [12]: expression is repressed

[Na+].[Na+].[O]=[W](=[O])([O-])[O-] [sodium tungstate]
reporter gene expression of WT 149 moaA reporter fusion [12]: becomes derepressed
